{"source": "patent US20250275986A1", "about": "“COMBINATION OF A KETONE BODY OR KETOGENIC COMPOUND WITH AN ANALGESIC OR ANTIOXIDANT” (KETOSWISS AG, priority 2021, published 2025)", "test_system": "headache during an acute migraine attack", "experiment": "Intensity of the headache (visual analogue scale 0 to 10) during acute migraine attacks in one migraine patient after intake of the substance(s)", "type": "in vivo, human", "experimental": "During the course of the trial, the patient had 17 recorded acute migraine attacks which were treated by either one of the following nine treatment regimes: • 1. 13 g flavoured mix of β-hydroxbutyrate (βHB) mineral salts termed “MigraKet” (a ketone body) • 2. 500 mg acetylsalicylic acid (a simple analgesic) • 3. 400 mg ibuprofen (a simple analgesic) • 4. 13 g MigraKet+500 mg acetylsalicylic acid (combination of a ketone body and a simple analgesic) • 5. 13 g MigraKet+400 mg ibuprofen (combination of a ketone body and a simple analgesic) • 6. 2.5 mg frovatriptan (a triptan) • 7. 13 g MigraKet+2.5 mg frovatriptan (combination of a ketone body and a triptan) • 8. 9 mg melatonin • 9. 13 g MigraKet+9 mg melatonin (combination of a ketone body and an antioxidant such as melatonin) The “MigraKet” consisted of:\n10g of a sodium, potassium, magnesium and calcium D-βHB mineral mix in a 1:1:2:2 ratio, and 3g of flavour (malic acid and natural lemon and lime flavour sweetend by stevia), dissolved in 0.51 of still water.\nThe intensity of the headache (pain) was recorded at the time of intake of the substance(s) (0h), and at five subsequent time-points during the course of one day (2h, 4 h, 8h, 12 h, 24h after substance intake). The intensity of the headache (pain) was categorized on a visual analogue scale from 0 (“no pain”) to 10 (“worst pain imaginable”). […]", "data": [{"molecule": "CN[C@@H]1CCc2[nH]c3ccc(C(N)=O)cc3c2C1", "note": "[Frovatriptan, frovatriptan]", "values": [{"measurement": "time for which the headache was eliminated", "setting": "after intake, melatonin with βHB: in 1 out of 2 instances, b14: taken when intensity about 0 to about 4", "result": "less than 12 h"}]}, {"molecule": "COc1ccc2[nH]cc(CCNC(C)=O)c2c1", "note": "[Melatonin, N-[2-(5-Methoxyindol-3-yl)ethyl]acetamid]", "values": [{"measurement": "effect on the headache in words", "setting": "over the course of 24 hours", "result": "did not ameliorate the headache"}]}]}
